Values of other authors, collected in paper PMC3015105 (Bioorganic & medicinal chemistry letters, 2010).

Assays:
[1] = molecular target: human dopamine transporter (hDAT) (Homo sapiens, UniProt Q01959); conditions: read-out: IC50 DAT inhibition; reported by Carroll
Sequence of human dopamine transporter (hDAT) (Q01959 whole entry): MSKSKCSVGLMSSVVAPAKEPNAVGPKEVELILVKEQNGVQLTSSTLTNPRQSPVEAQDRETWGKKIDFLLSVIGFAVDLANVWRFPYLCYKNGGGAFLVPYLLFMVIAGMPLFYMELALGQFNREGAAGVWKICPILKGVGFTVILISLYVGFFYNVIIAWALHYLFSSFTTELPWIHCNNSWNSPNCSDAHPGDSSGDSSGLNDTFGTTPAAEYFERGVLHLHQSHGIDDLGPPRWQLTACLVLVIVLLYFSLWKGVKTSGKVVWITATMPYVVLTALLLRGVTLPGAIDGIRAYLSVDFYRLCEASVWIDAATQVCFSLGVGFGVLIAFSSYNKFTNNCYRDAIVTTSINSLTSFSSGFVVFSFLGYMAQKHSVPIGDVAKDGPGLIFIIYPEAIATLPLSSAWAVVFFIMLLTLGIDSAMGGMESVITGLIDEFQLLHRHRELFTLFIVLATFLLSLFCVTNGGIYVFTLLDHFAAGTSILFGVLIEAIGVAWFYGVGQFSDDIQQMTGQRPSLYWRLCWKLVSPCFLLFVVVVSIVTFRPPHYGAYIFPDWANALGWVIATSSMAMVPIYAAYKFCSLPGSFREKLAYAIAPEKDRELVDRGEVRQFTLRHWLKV

COC(=O)[C@H]1[C@@H](OC(=O)c2ccccc2)C[C@@H]2CC[C@H]1N2C [Cocaine]
duration of action: 10 to 15 min | immediate effect (onset): < 15 s

Cc1cc(C2C3CCC(CC2c2ccc(Cl)cc2)S3)on1 (stereo not drawn) [2β-(3-methylisoxazol-5-yl)-3β-(4-chlorophenyl)-8-thiabicyclo[3.2.1]octane]
IC50 [1]: 0.59 nM
